Experimental data as given in patent publication US20040097598A1 (priority 2001, published 2004).
Read-outs that look alike come from different tables or passages of the source.

Columns and labels:
MES seizure = experiment: maximal electroshock (MES) seizure test; format: in vivo, mice; details: for TI (therapeutic index): ratio TD50 (rotorod)/ED50 (MES); for TI (therapeutic index) / anticonvulsant activity: mice; for LogED50 / anticonvulsant activity: MES test; for LogED50: best-fit value, C5 vs C7 comparison; for anticonvulsant activity: intraperitoneal
Procedure: (§1) Male CF-1 mice, weighing 28-30 g, were used as subjects (Charles River Canada, La Prairie, Quebec, Canada). Three to five subjects per drug dose were used to prescreen each compound for anticonvulsant activity. Prescreening involved injecting subjects with the drug at doses of 3, 6 mmol/kg and assessing activity and toxicity 30 min later. Promising compounds progressed to dose-response studies, which employed at least 50 subjects, 10 subjects per dose.
(§2) Compounds were dissolved in oil and injected intraperitoneally.
Thirty minutes after drug injection, the MES seizure test was administered. We used the procedure of Krall et al. (1978). In brief, a seizure was induced using the electrical current applied via corneal electrodes. The current was set to 50 mA with a 60 Hz sine wave pulse configuration and train duration of 0.2 sec. Seizure protection was defined in this model as a failure to extend the hind limbs to an angle greater than 90 degrees during the tonic period of the convulsion.
Data analysis was performed using GraphPad Prizm software package version 3.02 for Windows (GraphPad Software Inc, San Diego, Calif., USA). Both dose-response and toxicity data were fitted using non-linear sigmoidal dose-response model with variable slope: Y=Bottom+(Top-Bottom)/(1+10^((LogED50—X)*HillSlope)), where Bottom, Top, HillSlope and ED50 were the fitting parameters, X was the logarithm of drug concentration, and Y was the response parameter. ED50 and TD50, which are the concentrations that give a response in 50% subjects in seizure and toxicity tests, were determined as best-fit values. Therapeutic index (TI) was calculated as a ratio of TD50/ED50.

[1] = test system: neurological deficit (rotorod); experiment: rotorod toxicity test; format: in vivo; details: dose giving rotorod failure in 50% subjects, about 25 min after intraperitoneal injection in oil, male CF-1 mice
Procedure: as §1, §2
The test was administered about 25 minutes after the injection. In brief, the diameter of a rotating rod was about 5 cm and the number of revolutions per minute was set at 6 rpm. Mice were placed on the rod so that it was rotated toward the animal. Animals that were not able to maintain their equilibrium on the rod for 1 min were again put on the rod a further two times.
Both dose-response and toxicity data were fitted using non-linear sigmoidal dose-response model with variable slope: Y=Bottom+(Top-Bottom)/(1+10^((LogED50—X)*HillSlope)), where Bottom, Top, HillSlope and ED50 were the fitting parameters, X was the logarithm of drug concentration, and Y was the response parameter. […] Therapeutic index (TI) was calculated as a ratio of TD50/ED50.

[2] = test system: thujone model of epileptic seizures; details: cited from earlier work
[3] = test system: convulsions induced by isonicotinic acid; details: pretreatment, rats; cited from earlier work
[4] = test system: electrically evoked seizure; details: exposed for 4 h to air containing acetone vapors; cited from earlier work
seizures = experiment: anticonvulsant action of the ketone bodies; details: in vivo
Source text: The present inventors have studied the mechanism of action of the ketogenic diet in a series of animal experiments.

[5] = test system: threshold pentylenetetrazole (PTZ) model; experiment: threshold pentylenetetrazole (PTZ) model, acetone (FIG. 3); format: in vivo
Source text: (§3) The amygdala-kindled focus is a model of complex partial seizures in humans (Albright & Burnham 1980). These are notoriously drug resistant.
(§4) The AY-9944-induced seizures were quantified by measurement of the onset-to-offset durations of the slow spike-and-wave discharge (SWD) combined over the 20-min intervals. In the AY-9944 model, average ‘% SWD decrease’ was the response parameter.
(§5) Compounds may be examined for their efficacy as anticonvulsants using a number of different animal models, including the maximal electroshock (MES) model (human analog: tonic-clonic seizures) as described in Krall et al. (1978) and in Example 1 herein, the threshold pentylenetetrazole (PTZ) model (human analog: absence seizures) as described in Krall et al. (1978), the amygdala-kindling model (human analog: complex partial seizures with secondary generalization) as described in Albright & Burnham (1980), and the AY-9944 model (human analog, a typical absence, a component of the Lennox-Gastaut syndrome) as described in Cortez et al. (2001). The compounds may also be tested for their toxicity using standard assays, such as the standard rotorod assay as described in Dunham & Miya (1957) and Wlaz & Loscher (1998) and in Example 1 herein.

AY-9944-induced seizures = experiment: AY-9944 model, acetone (FIG. 3); format: in vivo
Source text: as §3, §4, §5

[6] = test system: maximal electroshock (MES) model; experiment: maximal electroshock (MES) model, acetone (FIG. 3); format: in vivo
Source text: as §3, §4, §5

[7] = test system: semicarbizide-induced convulsions; details: given orally to mice; cited from earlier work
[8] = test system: convulsions induced by electroshock; details: pretreatment, rats; cited from earlier work
[9] = test system: amygdala-kindled seizures; experiment: amygdala-kindling model, acetone (FIG. 3)
Source text: as §3, §4, §5

[10] = target: nicotinic acetylcholine receptors; details: inhibition of acetylcholine ion channel, Alifimoff et al. (1993); cited from earlier work
[11] = test system: maximal electroshock seizures; experiment: maximal electroshock seizures after intraperitoneal acetoacetate; format: in vivo; details: 15-30 min after intraperitoneal injection, mice or rats
Source text: (§6) Experiments of Keith and Helmholz involving the thujone model of epileptic seizures seemed to support Wilder's hypothesis (Helmholz & Keith 1930, Keith 1931, 1932a,b). […] The Keith's results and conclusions about anticonvulsant activity of acetoacetate are debatable. […] At the same time, acetoacetate easily decomposes to form acetone.

[12] = test system: pentylenetetrazole seizures; experiment: pentylenetetrazole seizures after intraperitoneal acetoacetate; format: in vivo; details: 15-30 min after intraperitoneal injection, mice or rats
Source text: as §6

[13] = dose giving seizure protection in 50% subjects, MES test 30 min after intraperitoneal injection in oil, male CF-1 mice
[14] = Mus musculus, ip, 0.5 h, dose giving seizure protection in 50% subjects, MES test 30 min after intraperitoneal injection in oil, male CF-1 mice, read-out: ED50
[15] = mouse, in vivo, ip, read-out: TD50
[16] = given chronically for 28 days, rats

## 2-Butanone
MES seizure; [13]
  ED50: 5800 µmol/kg
MES seizure
  TI (therapeutic index): 1.7
[1]
  TD50: 10000 µmol/kg

## CCCCCC(=O)CCC [4-Nonanone]
MES seizure; [14]
  ED50: 5000 µmol/kg
MES seizure
  TI (therapeutic index): 3.3
[1]; [15]
  TD50: 16300 µmol/kg

## CC(=O)CC(=O)O [acetoacetic acid]
[2]
  anticonvulsant effect: most marked anticonvulsant effects

## CCCC(C)O (centres unmarked) [2-Pentanol]
MES seizure
  LogED50: LogED50 = 0.2331
  TI (therapeutic index): 3.7
MES seizure; [14]
  ED50: 1600 µmol/kg
[1]; [15]
  TD50: 5700 µmol/kg

## CCCCCCCC(C)O (centres unmarked) [2-Nonanol]
MES seizure; [14]
  ED50: 1200 µmol/kg
MES seizure
  TI (therapeutic index): 4.3
[1]; [15]
  TD50: 5000 µmol/kg

## CCCCCCCCC(C)=O [2-Decanone]
MES seizure; [13]
  ED50: Not Active
MES seizure
  TI (therapeutic index): Not Active
[1]
  TD50: Not Actuve

## CCCCOC(C)=O [Butyl acetate]
MES seizure
  anticonvulsant activity: Series V - Inactive analogues

## COCC(C)=O [Methoxyacetone]
MES seizure
  anticonvulsant activity: absence of anticonvulsant activity

## CCCCCCCCC=O [Nonanal]
MES seizure
  anticonvulsant activity: inactive as anticonvulsants

## CCCCCCCCCC(C)=O [2-Undecanone]
MES seizure; [13]
  ED50: Not Active
MES seizure
  TI (therapeutic index): Not Active
[1]
  TD50: Not Active

## CCCCCCCC(C)=O [2-Nonanone]
MES seizure; [14]
  ED50: 1700 µmol/kg
MES seizure
  TI (therapeutic index): 9.4
[1]; [15]
  TD50: 15900 µmol/kg

## CCC(=O)CC [3-Pentanone]
MES seizure
  LogED50: LogED50 = 0.5124
  TI (therapeutic index): 2.3
MES seizure; [14]
  ED50: 3300 µmol/kg
[1]; [15]
  TD50: 7600 µmol/kg

## CCCCCCC(=O)CC [3-Nonanone]
MES seizure; [14]
  ED50: 9600 µmol/kg
MES seizure
  TI (therapeutic index): 2.2
[1]; [15]
  TD50: 20900 µmol/kg

## Acetone
MES seizure; [13]
  ED50: 16200 µmol/kg
MES seizure; dose giving seizure protection in 50% subjects, MES test 30 min after intraperitoneal injection in oil, male CF-1 mice, listed as acetone
  ED50: 16000 µmol/kg
[3]
  protection against clonic-tonic convulsions: protected
[4]
  rats in which electrically evoked seizure is inhibited: 50%
seizures
  anticonvulsant: anticonvulsant
[5]
  seizure suppression: suppresses seizures
AY-9944-induced seizures
  seizure suppression: suppresses seizures
[6]
  seizure suppression: suppresses seizures
[7]
  semicarbizide-induced convulsions and mortality: reduce
[8]
  protection against clonic-tonic convulsions: protected
[9]; amygdala-kindling model
  seizure suppression: suppresses seizures
[9]; [16]
  development of kindled seizures: significantly delayed
  tolerability: well tolerated
[9]; sub-toxic doses
  effect against the kindled amygdala focus: effective
[1]
  TD50: 35200 µmol/kg

## CCCC(C)=O [2-Pentanone]
MES seizure
  LogED50: LogED50 = 0.5176
  TI (therapeutic index): 2.2
MES seizure; Mus musculus, ip, 0.5 h
  ED50: 3300 µmol/kg
[1]; [15]
  TD50: 7200 µmol/kg

## CC(=O)CC(C)(C)O [Diacetone]
MES seizure; listed as diacetone alcohol
  anticonvulsant activity: absence of anticonvulsant activity

## CCCC(=O)CCC [4-Heptanone]
MES seizure
  LogED50: LogED50 = 0.2981
  TI (therapeutic index): 2.4
MES seizure; [14]
  ED50: 2000 µmol/kg
[1]; [15]
  TD50: 4700 µmol/kg

## CCCCCCCCC [Nonane]
MES seizure
  anticonvulsant activity: inactive as anticonvulsant

## CCCCCC(=O)CCCCC [6-Undecanone]
MES seizure; [13]
  ED50: Not Active
MES seizure
  TI (therapeutic index): Not Active
[1]
  TD50: Not Active

## CCCCCCC(C)O (centres unmarked) [2-Octanol]
MES seizure; [14]
  ED50: 2000 µmol/kg
MES seizure
  TI (therapeutic index): 1.9
[1]; [15]
  TD50: 3900 µmol/kg

## CCC(C)O (centres unmarked) [2-butanol]
[10]
  IC50: 60 to 70 mM

## CCCCCC(C)=O [2-Heptanone]
MES seizure
  LogED50: LogED50 = 0.4447
  TI (therapeutic index): 2.2
MES seizure; [14]
  ED50: 2800 µmol/kg
[1]; [15]
  TD50: 6000 µmol/kg

## CC(=O)CC(=O)O [Acetoacetate]
[11]
  effect against maximal electroshock seizures: not effective
[12]
  effect against pentylenetetrazole seizures: not effective

## CC(=O)CC(=O)[O-].[Na+] [sodium acetoacetate]
[2]
  anticonvulsant effect: most marked anticonvulsant effects

## CCCCCC(C)O (centres unmarked) [2-Heptanol]
MES seizure
  LogED50: LogED50 = 0.1197
  TI (therapeutic index): 3.9
MES seizure; [14]
  ED50: 1300 µmol/kg
[1]; [15]
  TD50: 5100 µmol/kg

## CC(O)CCCO (centres unmarked) [1,4-Pentanediol]
MES seizure
  anticonvulsant activity: absence of anticonvulsant activity

## CCOC(=O)CC(C)=O [Ethyl acetoacetate]
MES seizure
  anticonvulsant activity: absence of anticonvulsant activity

## CCCCC(C)=O [2-Hexanone]
MES seizure; Mus musculus, ip, 0.5 h
  ED50: 2400 µmol/kg
MES seizure
  TI (therapeutic index): 1.8
[1]; [15]
  TD50: 4400 µmol/kg

## CCCCC(=O)CCCC [5-Nonanone]
MES seizure; [14]
  ED50: 3600 µmol/kg
MES seizure
  TI (therapeutic index): 3.6
[1]; [15]
  TD50: 13200 µmol/kg

## CCCCCC=O [Hexanal]
MES seizure
  anticonvulsant activity: inactive as anticonvulsants

## CC(O)CC(=O)O (stereo not drawn) [Beta-hydroxybutyrate, beta-hydroxybutyrate]
[2]
  anticonvulsant effect: not anticonvulsant

## CCCCCCC(C)=O [2-Octanone]
MES seizure; [14]
  ED50: 3400 µmol/kg
MES seizure
  TI (therapeutic index): 1.8
[1]; [15]
  TD50: 6000 µmol/kg

## CCCCCCCCC(C)O (centres unmarked) [2-Decanol]
MES seizure; [13]
  ED50: Not Active
MES seizure
  TI (therapeutic index): Not Active
[1]
  TD50: Not Active

## CCCC(CCC)C(=O)O [valproate]
MES seizure; [14]
  ED50: 1400 µmol/kg
MES seizure
  TI (therapeutic index): 2.7
[1]; [15]
  TD50: 3800 µmol/kg
